Measurements: patent US8906931B1, “9-[4-(3-chloro-2-fluoro-phenylamino-7-methoxy-quinazoline-6-yloxy]-1,4-diaza-spiro[5.5]undecane-5-one dimaleate, use thereof as a medicament and method for the production thereof” (Boehringer Ingelheim International GmbH, priority 2011, dated 2014)

Experiment: Water sorption test (DVS, hygroscopicity)
Format: physicochemical
Conditions: humidity range of 10-90% r.h.
Protocol: By low hygroscopicity is meant, within the scope of the present invention, that in sorption experiments on the compound of formula (I) a water uptake of less than 1% is observed in the humidity range of 10-90% investigated.
A DVS-1 made by Surface Measurement Systems (=SMS) is used to test the hygroscopic characteristics: the following humidity profiles are used: 10-90% r.h. in 10% steps, recording both a sorption and a desorption profile, typical weights: 10-20 mg

water uptake in sorption experiments: less than 1%
SMILES: COc1cc2ncnc(Nc3cccc(Cl)c3F)c2cc1O[C@H]1CC[C@@]2(CC1)NCCNC2=O.O=C(O)/C=C\C(=O)O.O=C(O)/C=C\C(=O)O [(I), (trans)-9-[4-(3-chloro-2-fluoro-phenylamino)-7-methoxy-quinazolin-6-yloxy]-1,4-diaza-spiro[5.5]undecan-5-one dimaleic acid compound]
